Experiment [1] relates to 22AG (DNA, G4) AGGGTTAGGGTTAGGGTTAGGG
The experiment can be described thus: fluorescence titration (ThT titrated with 22AG). To be noted: 30 mM Tris-HCl pH 7.4, 25 °C, 1 bar, 2.14 µM ThT.

Experiment [2] relates to labelled 22AG (DNA, G4) AGGGTTAGGGTTAGGGTTAGGG
Kind of experiment: FRET efficiency (FAM/TAMRA). Conditions: no added Na+ or K+; 30 mM Tris-HCl pH 7.4, 25 °C, 1 bar; 2 µM DNA, 20 µM ThT; Erel rises on binding.

As to `Cc1ccc2c(c1)sc(-c1ccc(N(C)C)cc1)[n+]2C`, the Kb in experiment [1] (60 mM KCl, equivalent independent sites fit) was 3.51 ± 0.42 × 10^5 M^-1; in experiment [1] (60 mM NaCl, equivalent independent sites fit), 0.42 ± 0.04 × 10^5 M^-1; in experiment [1] (no added Na+ or K+, 3 equivalent sites, free DNA mainly unfolded), 0.87 ± 0.06 × 10^5 M^-1. Besides, the binding result in experiment [2] is “yes”.

Source of the values: paper PMC8102477 (2021).
